Target: T1, WT human SLACK (Homo sapiens, UniProt Q5JUK3)
T1 construct: host or cells: CHO-K1
T1 sequence (Q5JUK3 1-1235 isoform Q5JUK3-3): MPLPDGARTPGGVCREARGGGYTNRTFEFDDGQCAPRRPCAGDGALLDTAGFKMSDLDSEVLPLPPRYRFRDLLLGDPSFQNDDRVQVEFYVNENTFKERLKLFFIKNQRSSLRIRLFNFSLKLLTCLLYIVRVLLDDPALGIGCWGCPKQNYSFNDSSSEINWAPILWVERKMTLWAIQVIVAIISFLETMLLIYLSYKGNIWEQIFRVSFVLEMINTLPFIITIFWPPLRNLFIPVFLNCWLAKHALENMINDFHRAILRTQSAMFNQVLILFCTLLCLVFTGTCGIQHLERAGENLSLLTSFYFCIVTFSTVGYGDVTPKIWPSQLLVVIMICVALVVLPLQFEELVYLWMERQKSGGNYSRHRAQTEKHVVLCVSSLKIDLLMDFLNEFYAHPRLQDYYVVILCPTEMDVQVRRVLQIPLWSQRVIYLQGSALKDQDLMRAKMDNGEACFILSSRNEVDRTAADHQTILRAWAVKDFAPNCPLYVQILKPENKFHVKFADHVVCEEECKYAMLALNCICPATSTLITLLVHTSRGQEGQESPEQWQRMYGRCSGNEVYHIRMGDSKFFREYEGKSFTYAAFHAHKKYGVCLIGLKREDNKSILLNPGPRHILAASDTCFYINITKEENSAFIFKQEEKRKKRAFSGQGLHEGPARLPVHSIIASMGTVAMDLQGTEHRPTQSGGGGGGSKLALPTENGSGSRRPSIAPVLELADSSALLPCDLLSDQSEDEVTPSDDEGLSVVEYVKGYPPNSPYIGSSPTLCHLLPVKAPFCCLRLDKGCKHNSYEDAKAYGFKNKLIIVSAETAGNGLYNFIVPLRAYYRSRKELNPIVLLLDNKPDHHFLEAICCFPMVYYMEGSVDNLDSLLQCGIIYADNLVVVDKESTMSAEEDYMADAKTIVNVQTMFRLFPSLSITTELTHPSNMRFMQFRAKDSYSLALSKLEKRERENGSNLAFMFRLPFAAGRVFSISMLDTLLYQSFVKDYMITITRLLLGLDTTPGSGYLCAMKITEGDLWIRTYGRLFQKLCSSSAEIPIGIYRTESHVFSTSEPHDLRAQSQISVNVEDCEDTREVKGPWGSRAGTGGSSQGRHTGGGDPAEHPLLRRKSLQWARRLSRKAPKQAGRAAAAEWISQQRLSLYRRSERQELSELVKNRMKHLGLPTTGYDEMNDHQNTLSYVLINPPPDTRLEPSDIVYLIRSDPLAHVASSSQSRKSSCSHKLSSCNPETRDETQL
Assay: Whole-cell automated patch clamp (APC) in CHO-K1 cells stably expressing WT human SLACK
Assay type: cell-based
Settings: for IC50 / WT SLACK inhibition, result in words: APC; for IC50: CHO-K1 cells stably expressing WT human SLACK, averages (n ≥ 3); for SLACK Imax: maximum inhibition at 30 µM test compound standardized to VU0606170 (set at 100%), WT human SLACK; for WT SLACK inhibition, result in words: concentrations 0.125 to 30 µM
Description: Using concentrations ranging from 0.125 to 30 µM in half-log steps, a concentration–response relationship was generated for each new analog using our APC assay in CHO-K1 cells stably expressing WT SLACK. A minimum of three cells, i.e., replicates, were collected per concentration for each analog.
Automated patch clamp recording was performed with a SyncroPatch 768 PE system (Nanion, Munich, Germany) as previously described. Whole-cell recordings were performed at room temperature. Cells were harvested by first washing with PBS without Mg^2+ or Ca^2+ (Gibco, Billings, MT, USA) to remove cell culture medium, followed by dissociation with TryPLE (Gibco, Billings, MT, USA). Cells were then resuspended and diluted to 200,000 cells/mL in external solution. External solution contained 105 mM NaCl, 4 mM KCl, 1 mM MgCl2, 5 mM CaCl2, 10 mM HEPES, 40 mM N-Methyl-D-glucamine chloride, titrated to pH 7.4 with NaOH and osmolarity of 300 mOsm/kg; internal solution contained 70 mM NaCl, 70 mM KF, 10 mM KCl, 5 mM EGTA, 5mM HEPES, titrated to a pH 7.2 with KOH and osmolarity of 295 mOsm/kg.
The APC protocol was set as following: Cells were held at […] −80 mV for 100 ms, then a ramp protocol was performed from −100 mV to 80 mV at 0.4 mV/ms, hold the cell at −80 mV for another 100 ms, then steps were performed at −20 mV, 0 mV, +20 mV, +40 mV, and +60 mV for 100 ms of each step. Whole-cell currents were measured at 0 mV and normalized to current after external buffer addition.

IC50 [nM]	SLACK Imax [%]	WT SLACK inhibition, result in words	Compound
1400	–	–	CC(C)(Oc1ccc(Cl)cc1)C(=O)Nc1cnc(Oc2ccccc2F)nc1 [Analog 10]
1700	–	–	CC(C)(Oc1ccc(Cl)cc1)C(=O)Nc1cnc(Oc2ccccc2)nc1 [Analog 15]
2100	–	–	CC(C)(Oc1ccc(Cl)cc1)C(=O)Nc1cnc(Oc2cccc(F)c2)nc1 [Analog 16]
1800	102	–	CC(C)(Oc1ccc(Cl)cc1)C(=O)Nc1cnc(Oc2ccc(F)cc2)nc1 [Analog 17]
1200	97	–	CC(C)(Oc1ccc(Cl)cc1)C(=O)Nc1cnc(Oc2ccccc2Cl)nc1 [Analog 18]
1500	–	–	CC(C)(Oc1ccc(Cl)cc1)C(=O)Nc1cnc(Oc2cccc(Cl)c2)nc1 [Analog 19]
1200	–	–	CC(C)(Oc1ccc(Cl)cc1)C(=O)Nc1cnc(Oc2ccc(Cl)cc2)nc1 [Analog 20]
2900	–	–	Cc1ccccc1Oc1ncc(NC(=O)C(C)(C)Oc2ccc(Cl)cc2)cn1 [Analog 21]
2300	–	–	Cc1cccc(Oc2ncc(NC(=O)C(C)(C)Oc3ccc(Cl)cc3)cn2)c1 [Analog 22]
1700	–	–	Cc1ccc(Oc2ncc(NC(=O)C(C)(C)Oc3ccc(Cl)cc3)cn2)cc1 [Analog 23]
1700	–	–	CC(C)(Oc1ccc(Cl)cc1)C(=O)Nc1cnc(Oc2ccccc2C(F)(F)F)nc1 [Analog 24]
1900	101	–	CC(C)(Oc1ccc(Cl)cc1)C(=O)Nc1cnc(Oc2cccc(C(F)(F)F)c2)nc1 [Analog 25]
1000	–	–	CC(C)(Oc1ccc(Cl)cc1)C(=O)Nc1cnc(Oc2ccc(C(F)(F)F)cc2)nc1 [Analog 26]
1500	101	–	COc1ccccc1Oc1ncc(NC(=O)C(C)(C)Oc2ccc(Cl)cc2)cn1 [Analog 27]
2400	101	–	COc1cccc(Oc2ncc(NC(=O)C(C)(C)Oc3ccc(Cl)cc3)cn2)c1 [Analog 28]
1800	–	–	COc1ccc(Oc2ncc(NC(=O)C(C)(C)Oc3ccc(Cl)cc3)cn2)cc1 [Analog 29]
1400	–	–	CC(C)(Oc1ccc(Cl)cc1)C(=O)Nc1cnc(Oc2ccccc2OC(F)(F)F)nc1 [Analog 30]
1900	–	–	CC(C)(Oc1ccc(Cl)cc1)C(=O)Nc1cnc(Oc2ccc(OC(F)(F)F)cc2)nc1 [Analog 32]
940	–	–	CC(C)(Oc1ccc(Cl)cc1)C(=O)Nc1cnc(Oc2ccccc2C#N)nc1 [Analog 33]
1700	–	–	CC(C)(Oc1ccc(Cl)cc1)C(=O)Nc1cnc(Oc2cccc(C#N)c2)nc1 [Analog 34]
1100	–	–	CC(C)(Oc1ccc(Cl)cc1)C(=O)Nc1cnc(Oc2ccc(C#N)cc2)nc1 [Analog 35]
1100	–	–	CC(C)(Oc1ccc(Cl)cc1)C(=O)Nc1cnc(Oc2ccc(S(C)(=O)=O)cc2)nc1 [Analog 36]
> 10000	110	only a weak inhibitor	CC(C)(Oc1ccc(Cl)cc1)C(=O)Nc1cnc(Oc2ccc(C(N)=O)cc2)nc1 [Analog 37]
1000	101	–	CC(C)(Oc1ccc(Cl)cc1)C(=O)Nc1cnc(Oc2ccc(F)cc2F)nc1 [Analog 38]
1300	101	–	CC(C)(Oc1ccc(Cl)cc1)C(=O)Nc1cnc(Oc2cc(F)ccc2F)nc1 [Analog 39]
1700	–	–	CC(C)(Oc1ccc(Cl)cc1)C(=O)Nc1cnc(Oc2ccc(F)c(F)c2)nc1 [Analog 41]
1400	–	–	CC(C)(Oc1ccc(Cl)cc1)C(=O)Nc1cnc(Oc2cc(F)cc(F)c2)nc1 [Analog 42]
580	91	–	CC(C)(Oc1ccc(Cl)cc1)C(=O)Nc1cnc(Oc2c(F)cccc2Cl)nc1 [Analog 43]
> 10000	66	only weakly active	CC(C)(Oc1ccccc1)C(=O)Nc1cnc(Oc2ccccc2F)nc1 [Analog 44]
> 10000	25	only weak inhibitors	CC(C)(Oc1ccccc1F)C(=O)Nc1cnc(Oc2ccccc2F)nc1 [Analog 45]

— publication PMC11643494, “Structure–Activity Relationship Studies in a Series of 2-Aryloxy-N-(pyrimidin-5-yl)acetamide Inhibitors of SLACK Potassium Channels” (Molecules, 2024)
